# From ChEMBL document CHEMBL1201862, “PubChem BioAssay data set” (2004)
# Calls of active or inactive are those of the source.
# Key:
# [1] = target: T1, Apoptotic protease-activating factor 1 (Homo sapiens, UniProt O14727); assay type: functional
# T1 sequence (O14727 whole entry): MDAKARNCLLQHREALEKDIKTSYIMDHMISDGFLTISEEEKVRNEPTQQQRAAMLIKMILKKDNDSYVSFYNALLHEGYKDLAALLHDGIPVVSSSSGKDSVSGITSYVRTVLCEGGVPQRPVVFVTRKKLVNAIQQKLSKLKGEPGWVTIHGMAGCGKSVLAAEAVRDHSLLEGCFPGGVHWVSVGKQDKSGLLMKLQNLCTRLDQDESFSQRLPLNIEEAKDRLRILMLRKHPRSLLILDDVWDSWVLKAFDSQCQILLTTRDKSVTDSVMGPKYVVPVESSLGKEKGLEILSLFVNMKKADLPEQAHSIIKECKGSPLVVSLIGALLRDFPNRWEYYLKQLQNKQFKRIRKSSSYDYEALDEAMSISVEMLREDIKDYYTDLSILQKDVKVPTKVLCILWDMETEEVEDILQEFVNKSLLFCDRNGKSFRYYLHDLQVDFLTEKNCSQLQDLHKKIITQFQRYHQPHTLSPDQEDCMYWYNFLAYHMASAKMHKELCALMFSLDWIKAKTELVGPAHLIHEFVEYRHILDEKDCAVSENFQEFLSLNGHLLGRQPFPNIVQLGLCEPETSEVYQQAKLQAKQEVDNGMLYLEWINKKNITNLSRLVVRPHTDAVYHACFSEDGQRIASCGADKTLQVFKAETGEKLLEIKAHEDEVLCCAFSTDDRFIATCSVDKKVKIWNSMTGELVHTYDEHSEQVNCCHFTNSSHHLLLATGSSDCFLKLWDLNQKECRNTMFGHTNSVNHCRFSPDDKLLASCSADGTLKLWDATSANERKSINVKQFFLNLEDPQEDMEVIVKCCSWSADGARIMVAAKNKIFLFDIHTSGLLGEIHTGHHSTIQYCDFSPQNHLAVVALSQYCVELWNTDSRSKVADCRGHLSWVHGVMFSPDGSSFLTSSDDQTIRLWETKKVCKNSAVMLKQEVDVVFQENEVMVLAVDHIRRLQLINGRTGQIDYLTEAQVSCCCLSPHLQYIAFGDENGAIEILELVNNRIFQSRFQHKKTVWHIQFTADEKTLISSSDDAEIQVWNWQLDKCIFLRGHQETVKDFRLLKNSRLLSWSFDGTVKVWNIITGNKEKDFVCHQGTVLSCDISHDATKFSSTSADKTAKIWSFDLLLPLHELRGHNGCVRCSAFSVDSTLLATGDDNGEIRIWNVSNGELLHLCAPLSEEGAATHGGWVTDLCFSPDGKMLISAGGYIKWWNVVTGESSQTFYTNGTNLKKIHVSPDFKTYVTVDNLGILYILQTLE
# [2] = inhibitors of SNCA 5'UTR-driven reporter translation, confirmation, H4 neuroglioma cells, luminescence (AID 1988); assay type: functional, cell-based
# HEK293 = assay: inhibitors of LMP1-driven NF-kB reporter, dose response, cell-based, HEK293, luciferase, cherry-pick (AID 588343); assay type: functional; conditions: Homo sapiens
# [3] = inhibitors of firefly luciferase expression or activity, dose response, H4 neuroglioma cells, luminescence (AID 1990); assay type: functional, cell-based
# [4] = Luminescence Cell-Based Dose Response HTS to Identify Inhibitors of 5'UTR Stem-Loop Driven Prion Protein mRNA Translation in H4 Neuroglioblastoma Cells. [Related pubchem assays: 1827 (Project Summary), 1813 (Primary HTS)]; assay type: functional
# [5] = Artemis endonuclease inhibitor potency, dose response, biochemical, fluorescence intensity (AID 720701); assay type: functional;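 further: Artemis endonuclease enzyme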
# Candida albicans [6] = assay: growth inhibition of resistant C. albicans, dose response, CaCi-8 strain, fluconazole, dry powder, set 4 (AID 488950); assay type: functional, organism-based
# Candida albicans [7] = assay: growth inhibition of azole-resistant C. albicans, dose response, CaCi-8 strain, Alamar Blue, dry powder, set 2 (AID 488909); assay type: functional, organism-based
# Candida albicans [8] = assay: C. albicans growth inhibition with fluconazole, dose response, antifungal resistance reversal project, CaCi-2 strain, Alamar Blue, dry powder, set 2 (AID 488930); assay type: functional, organism-based
# Candida albicans [9] = assay: fluconazole resistance reversal in C. albicans, dose response, CaCi-2 strain, Alamar Blue, dry powder, set 4 (AID 488943); assay type: functional, organism-based
# INS1 [10] = assay: caspase-3/7 inhibition in cytokine-treated INS-1E, dose response, beta-cell apoptosis inhibitor project, cell-based, caspase luminescence, dry powder (AID 488848); assay type: functional; conditions: Rattus norvegicus
# [11] = target: Short transient receptor potential channel 6 (Mus musculus, UniProt Q61143); assay: TRPC6 inhibition potency of TRPC4 inhibitor analogs, dose response, selectivity assay for selective TRPC4 inhibitor project, HEK293 cells, membrane potential dye, IC50 (AID 492987); assay type: functional, cell-based
# Short transient receptor potential channel 6, sequence (Q61143 whole entry): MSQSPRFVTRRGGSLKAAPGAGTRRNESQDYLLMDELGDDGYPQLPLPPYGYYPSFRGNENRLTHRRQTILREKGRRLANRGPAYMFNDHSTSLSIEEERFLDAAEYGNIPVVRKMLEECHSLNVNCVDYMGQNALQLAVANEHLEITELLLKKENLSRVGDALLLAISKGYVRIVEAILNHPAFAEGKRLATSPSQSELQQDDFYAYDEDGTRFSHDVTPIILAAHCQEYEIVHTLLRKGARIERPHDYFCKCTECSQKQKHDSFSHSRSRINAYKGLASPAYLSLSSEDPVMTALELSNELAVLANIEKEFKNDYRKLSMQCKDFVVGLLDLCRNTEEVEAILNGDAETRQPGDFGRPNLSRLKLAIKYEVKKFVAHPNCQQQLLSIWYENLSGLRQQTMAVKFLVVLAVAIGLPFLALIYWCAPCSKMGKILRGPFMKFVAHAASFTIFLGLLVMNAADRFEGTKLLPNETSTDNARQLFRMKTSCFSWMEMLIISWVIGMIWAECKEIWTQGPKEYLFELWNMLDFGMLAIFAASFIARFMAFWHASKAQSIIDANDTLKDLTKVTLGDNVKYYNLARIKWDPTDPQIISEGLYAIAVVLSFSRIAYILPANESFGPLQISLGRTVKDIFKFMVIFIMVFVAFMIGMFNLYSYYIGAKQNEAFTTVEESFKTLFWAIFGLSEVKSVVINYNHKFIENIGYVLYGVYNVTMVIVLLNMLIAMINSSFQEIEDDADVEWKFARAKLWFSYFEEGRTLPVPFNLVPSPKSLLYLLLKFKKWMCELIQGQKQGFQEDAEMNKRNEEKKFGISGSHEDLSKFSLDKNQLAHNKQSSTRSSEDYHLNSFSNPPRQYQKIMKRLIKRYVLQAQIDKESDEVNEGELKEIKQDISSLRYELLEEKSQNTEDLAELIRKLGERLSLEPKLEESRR
# [12] = inhibitors of intracellular T. cruzi replication, confirmation, NIH3T3 host cells, beta-gal luminescence (AID 2044); assay type: functional, cell-based;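 further: intracellular parasites grown in NIH/3T3 mouse fibroblasts as host cells; luminescent beta-galactosidase reporter signal from transgenic T. cruzi replicating inside host cells; inhibitors lower the luminescence signal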
# Protein RecA = target: T2, Protein RecA (Mycobacterium tuberculosis, UniProt P9WHJ3); assay: Fluorescence Cell-Free Homogeneous Dose Retest to Identify Inhibitors of RecA-Intein Splicing Activity. [Related pubchem assays (depositor defined):AID2097, AID2223, AID489010, AID492950]; assay type: functional
# T2 sequence (P9WHJ3 whole entry): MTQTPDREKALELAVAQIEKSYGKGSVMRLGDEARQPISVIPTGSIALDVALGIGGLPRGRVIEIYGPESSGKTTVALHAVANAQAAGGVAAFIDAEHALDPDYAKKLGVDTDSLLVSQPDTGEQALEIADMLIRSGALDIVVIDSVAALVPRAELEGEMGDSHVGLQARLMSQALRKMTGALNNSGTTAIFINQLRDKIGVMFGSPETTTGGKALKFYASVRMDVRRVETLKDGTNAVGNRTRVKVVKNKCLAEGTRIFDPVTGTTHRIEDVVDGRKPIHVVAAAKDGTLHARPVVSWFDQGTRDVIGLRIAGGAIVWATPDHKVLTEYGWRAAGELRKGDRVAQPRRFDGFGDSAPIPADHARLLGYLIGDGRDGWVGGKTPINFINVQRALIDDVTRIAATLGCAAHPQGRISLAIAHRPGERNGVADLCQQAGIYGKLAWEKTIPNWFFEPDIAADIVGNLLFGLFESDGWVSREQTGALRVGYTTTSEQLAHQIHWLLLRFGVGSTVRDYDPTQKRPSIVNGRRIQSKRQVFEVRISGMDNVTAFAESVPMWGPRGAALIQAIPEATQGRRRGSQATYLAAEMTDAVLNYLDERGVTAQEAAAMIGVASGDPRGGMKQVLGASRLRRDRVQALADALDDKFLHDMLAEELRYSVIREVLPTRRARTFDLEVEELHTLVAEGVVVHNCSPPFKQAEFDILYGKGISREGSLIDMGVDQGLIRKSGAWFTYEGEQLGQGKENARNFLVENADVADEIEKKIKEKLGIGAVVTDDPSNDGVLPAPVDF
# INS1 [13] = assay: beta cell apoptosis inhibitors, cytokine rescue, dose response, luminescence, retest (AID 449756); assay type: functional, cell-based; conditions: Rattus norvegicus, INS1;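 further: cell death triggered by IL-1 beta plus TNF-alpha plus IFN-gamma mixture; protective hits raise ATP signal compared with cytokine alone wells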
# [14] = target: ATP-dependent molecular chaperone HSP82 (Candida albicans (strain WO-1) (Yeast), UniProt C4YTQ8); assay: loss of DOC-induced GRE-beta-galactosidase reporter signal, dose response, Hsp90 inhibitor project, S. cerevisiae, luminescence (AID 2400); assay type: functional, cell-based;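 further: beta-galactosidase luminescence from glucocorticoid response element reporter as proxy for Hsp90 function; inhibitor potency where signal loss means Hsp90 inhibition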
# ATP-dependent molecular chaperone HSP82, sequence (C4YTQ8 whole entry): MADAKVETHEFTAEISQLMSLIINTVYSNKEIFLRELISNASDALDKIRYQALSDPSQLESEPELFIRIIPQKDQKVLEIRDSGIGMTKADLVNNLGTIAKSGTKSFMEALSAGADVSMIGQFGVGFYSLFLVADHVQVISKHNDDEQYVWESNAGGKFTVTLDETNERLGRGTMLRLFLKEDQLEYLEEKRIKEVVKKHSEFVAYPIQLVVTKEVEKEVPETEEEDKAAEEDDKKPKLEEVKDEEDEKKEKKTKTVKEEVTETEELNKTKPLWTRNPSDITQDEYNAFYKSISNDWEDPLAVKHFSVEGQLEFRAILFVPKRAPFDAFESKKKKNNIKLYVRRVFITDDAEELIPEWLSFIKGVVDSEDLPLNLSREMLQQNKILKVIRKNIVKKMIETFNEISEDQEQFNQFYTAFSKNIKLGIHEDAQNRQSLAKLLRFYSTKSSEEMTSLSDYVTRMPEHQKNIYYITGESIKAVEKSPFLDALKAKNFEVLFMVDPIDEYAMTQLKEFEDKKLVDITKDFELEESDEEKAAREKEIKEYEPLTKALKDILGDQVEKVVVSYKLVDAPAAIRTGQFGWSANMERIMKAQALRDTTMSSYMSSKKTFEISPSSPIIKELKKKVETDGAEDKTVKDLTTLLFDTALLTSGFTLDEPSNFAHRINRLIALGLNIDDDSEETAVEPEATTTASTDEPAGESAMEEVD
# [15] = target: T3, Replicative DNA helicase DnaB (Mycobacterium tuberculosis, UniProt P9WMR3); assay: DnaB intein splicing inhibitors, dose response, biochemical, cell-free fluorescence (AID 449749); assay type: functional
# T3 sequence (P9WMR3 whole entry): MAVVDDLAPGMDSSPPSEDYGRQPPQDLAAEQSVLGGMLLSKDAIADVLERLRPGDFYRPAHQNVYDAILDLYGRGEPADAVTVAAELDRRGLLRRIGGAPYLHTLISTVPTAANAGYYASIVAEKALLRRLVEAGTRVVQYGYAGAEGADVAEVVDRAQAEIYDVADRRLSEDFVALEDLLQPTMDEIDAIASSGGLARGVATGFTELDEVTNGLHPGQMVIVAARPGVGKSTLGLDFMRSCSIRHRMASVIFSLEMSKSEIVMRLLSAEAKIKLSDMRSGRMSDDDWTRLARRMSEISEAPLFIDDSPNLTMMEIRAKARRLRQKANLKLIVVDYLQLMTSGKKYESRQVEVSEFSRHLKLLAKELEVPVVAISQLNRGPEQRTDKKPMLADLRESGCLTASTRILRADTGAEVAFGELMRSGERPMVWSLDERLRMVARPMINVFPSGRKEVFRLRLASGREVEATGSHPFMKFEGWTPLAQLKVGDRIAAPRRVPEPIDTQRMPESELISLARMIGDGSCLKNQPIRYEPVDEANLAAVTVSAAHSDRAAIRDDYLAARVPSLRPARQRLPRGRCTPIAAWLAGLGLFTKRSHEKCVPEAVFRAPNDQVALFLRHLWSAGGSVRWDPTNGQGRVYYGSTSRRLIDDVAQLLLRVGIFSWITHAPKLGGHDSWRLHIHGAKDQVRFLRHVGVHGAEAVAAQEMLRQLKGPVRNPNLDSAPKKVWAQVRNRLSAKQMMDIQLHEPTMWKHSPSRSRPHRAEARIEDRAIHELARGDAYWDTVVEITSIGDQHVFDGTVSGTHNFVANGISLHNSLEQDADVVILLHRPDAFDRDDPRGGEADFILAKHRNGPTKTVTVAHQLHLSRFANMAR
# [16] = target: Serine/threonine-protein phosphatase (Candida dubliniensis (strain CD36 / CBS 7987 / NCPF 3949 / NRRLY-17841) (Yeast), UniProt B9W6M3); assay: calcineurin pathway inhibitors in yeast reporter, dose response, S. cerevisiae, CDRE-lacZ, luminescence, secondary (AID 2388); assay type: functional, cell-based;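 further: yeast reporter cells carrying a calcineurin-responsive lacZ construct stimulated with calcium chloride; luminescent beta-galactosidase reporter signal in whole cells rather than isolated phosphatase activity; potency for inhibition where a drop in reporter signal means calcineurin blockade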
# Serine/threonine-protein phosphatase, sequence (B9W6M3 whole entry): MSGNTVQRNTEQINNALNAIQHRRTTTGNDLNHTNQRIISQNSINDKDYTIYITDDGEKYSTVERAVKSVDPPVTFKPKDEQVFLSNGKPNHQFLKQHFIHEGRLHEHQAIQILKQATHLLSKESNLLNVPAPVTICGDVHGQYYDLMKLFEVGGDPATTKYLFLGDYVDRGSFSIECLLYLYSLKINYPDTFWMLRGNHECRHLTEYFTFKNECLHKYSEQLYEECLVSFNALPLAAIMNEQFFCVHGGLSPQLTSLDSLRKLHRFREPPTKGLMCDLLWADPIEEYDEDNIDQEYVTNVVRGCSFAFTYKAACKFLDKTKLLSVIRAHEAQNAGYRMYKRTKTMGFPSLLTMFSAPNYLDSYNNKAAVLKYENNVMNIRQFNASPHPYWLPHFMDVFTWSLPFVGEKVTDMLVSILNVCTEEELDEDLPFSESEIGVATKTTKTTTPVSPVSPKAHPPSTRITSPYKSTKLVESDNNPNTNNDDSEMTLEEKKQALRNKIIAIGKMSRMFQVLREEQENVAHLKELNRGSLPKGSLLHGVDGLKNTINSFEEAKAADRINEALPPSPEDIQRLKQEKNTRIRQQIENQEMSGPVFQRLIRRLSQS
# [17] = cytotoxicity toward NIH3T3 fibroblasts, dose response, counter-screen, cell-based, ATP luminescence, mouse fibroblasts (AID 2010); assay type: functional;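 further: cells exposed to compound for about 90 hours before reading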
# [18] = NIH-3T3 fibroblast cytotoxicity, dose response, cytotoxicity control, cell-based, fluorescence, Alamar Blue, secondary assay (AID 2327); assay type: functional;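 further: NIH-3T3 mouse fibroblasts cultured with fluconazole at 8 µg/mL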
# [19] = C. albicans growth with fluconazole, confirmation, fluorescence, retest (AID 2467); assay type: functional, cell-based
structure (smiles),measurement,setting,value
Clc1ccc(-c2cn3nc4c(nc3n2)CCCC4)cc1,IC50,[1],17.5 µM (active)
same,EC50,[2],1.51 µM (active)
same,AC50,HEK293,1.45 µM (active)
same,EC50,[3],3.45 µM (active)
same,EC50,[4],5.88 µM (active)
same,IC50,[5],> 20 µM (inactive)
O=C(c1cccc(Cl)c1)N1CCN(c2ccnc3cc(Cl)ccc23)CC1,AC50,Candida albicans [6],2.43 µM (active)
same,AC50,Candida albicans [7],8.31 µM (active)
same,AC50,Candida albicans [8],2.33 µM (active)
same,AC50,Candida albicans [9],2.75 µM (active)
COc1ccc(S(=O)(=O)N(C)C[C@@H]2Oc3c(NC(=O)Nc4cccc5c4ccn5C)cccc3C(=O)N([C@@H](C)CO)C[C@H]2C)cc1,AC50,INS1 [10],17.5 µM (active)
FC(F)(F)c1cc(N2CCCC2)nc2ccccc12,IC50,[11],23.1 µM (active)
COc1ccccc1NC1=C(N2CCCCC2)C(=O)c2ccccc2C1=O,EC50,[12],560 nM (active)
same,IC50,[1],3.32 µM (active)
same,EC50,Protein RecA,1.51 µM (active)
same,AC50,INS1 [13],916 nM (active)
same,EC50,[14],> 160 µM (inactive)
same,AC50,[15],18.6 µM (active)
same,EC50,[16],> 180 µM (inactive)
same,EC50,[17],> 30 µM (not active)
same,EC50,[18],41.7 µM (active)
same,EC50,[19],1.02 µM (active)
